Assay type in all cases: functional
What all share (conditions): Homo sapiens

Experiment [1] concerns A549. The experiment is described as follows: Tested for in vitro cytotoxicity against non-small cell lung cancer cell line A549/ATCC.
Experiment [2] has as its system CCRF-CEM. Briefly: Tested for in vitro cytotoxicity against leukemia cell line CCRF-CEM.
Experiment [3] deals with Hs-578T. Briefly: Tested for in vitro cytotoxicity against breast cancer cell line Hs 578.T.
The subject of experiment [4] is OVCAR-4. The experiment is described as follows: Tested for in vitro cytotoxicity against ovarian cancer cell line OVCAR-4.
Experiment [5] concerns NCI-H460. The experiment is described as follows: Tested for in vitro cytotoxicity against non-small cell lung cancer cell line NCI-H460.
In experiment [6] the test system is 786-0. The experiment is described as follows: Tested for in vitro cytotoxicity against renal cancer cell line 786-0.

Each structure is given as a SMILES string.

In general, GI50 refers to the concentration giving 50% growth inhibition. Read a low GI50 as greater sensitivity of the cells. On to `O=c1c2ccccc2nc2n1CCc1c-2[nH]c2ccccc12` [RUTAECARPINE], for which the GI50 in experiment [1] turned out to be 14.5 µM; in experiment [2], 18.9 µM; in experiment [3], 22.6 µM; in experiment [4], 18.9 µM.
With `COc1ccc2[nH]c3c(c2c1)CCn1c-3nc2ccccc2c1=O`, the GI50 in experiment [1], in experiment [2], in experiment [3], in experiment [5], in experiment [4] and in experiment [6] was greater than 25 µM each time.
With `COc1ccc2c3c([nH]c2c1)-c1nc2ccccc2c(=O)n1CC3`, the GI50 in experiment [1] is 0.75 µM; in experiment [2], greater than 25 µM; in experiment [3], 1.59 µM; in experiment [5], 1.38 µM; in experiment [4], greater than 25 µM; in experiment [6], 0.31 µM.
In the case of `O=c1c2ccccc2nc2n1CCc1c-2[nH]c2cc3c(cc12)OCO3`, the GI50 in experiment [1] was greater than 25 µM; in experiment [2], greater than 25 µM; in experiment [3] it was 5.05 µM; in experiment [5] it was 1.55 µM; in experiment [4] it was 1.5 µM; in experiment [6] it was 1.08 µM.
